Data from ChEMBL document CHEMBL1833806, “Mapping the intestinal alpha-glucogenic enzyme specificities of starch digesting maltase-glucoamylase and sucrase-isomaltase” (Bioorg Med Chem, 2011).

Tests used:
[1] = Inhibition of mouse his-tagged ctMGAM-N2 expressed in Sf9 cells assessed as amount of glucose produced using maltose as a substrate after 45 mins by glucose oxidase assay
[2] = Inhibition of mouse his-tagged ctMGAM-N20 expressed in Sf9 cells assessed as amount of glucose produced using maltose as a substrate after 45 mins by glucose oxidase assay
[3] = Inhibition of human ntMGAM expressed in Drosophila S2 cells assessed as amount of glucose produced using maltose as a substrate after 45 mins by glucose oxidase assay; assay type: cell-based
[4] = Inhibition of mouse his-tagged ctSI expressed in Sf9 cells assessed as amount of glucose produced using maltose as a substrate after 45 mins by glucose oxidase assay
[5] = Inhibition of human ntSI expressed in Drosophila S2 cells assessed as amount of glucose produced using maltose as a substrate after 45 mins by glucose oxidase assay; assay type: cell-based
[6] = Selectivity ratio of Ki for human ntMGAM to Ki for mouse ctMGAM-N2
[7] = Selectivity ratio of Ki for human ntSI to Ki for mouse ctMGAM-N2
[8] = species: Mus musculus; test: Selectivity ratio of Ki for mouse ctSI to Ki for mouse ctMGAM-N2
[9] = species: Mus musculus; test: Selectivity ratio of Ki for mouse ctMGAM-N20 to Ki for mouse ctMGAM-N2
[10] = Selectivity ratio of Ki for human ntMGAM to Ki for mouse ctMGAM-N20
[11] = Selectivity ratio of Ki for human ntMGAM to Ki for mouse ctSI
[12] = species: Homo sapiens; test: Selectivity ratio of Ki for human ntMGAM to Ki for human ntSI
[13] = Activity of mouse his-tagged ctMGAM-N2 expressed in Sf9 cells assessed as amount of glucose produced after 45 mins by glucose oxidase assay
[14] = Activity of mouse his-tagged ctMGAM-N20 expressed in Sf9 cells assessed as amount of glucose produced after 45 mins by glucose oxidase assay
[15] = Activity of mouse his-tagged ctSI expressed in Sf9 cells assessed as amount of glucose produced after 45 mins by glucose oxidase assay
[16] = Activity of human ntSI expressed in Drosophila S2 cells assessed as amount of glucose produced after 45 mins by glucose oxidase assay; assay type: cell-based
[17] = Activity of human ntMGAM expressed in Drosophila S2 cells assessed as amount of glucose produced after 45 mins by glucose oxidase assay; assay type: cell-based
[18] = species: Mus musculus; test: Ratio of Km for mouse ctMGAM-N20 to Km for mouse ctMGAM-N2
[19] = Activity of mouse his-tagged ctMGAM-N2 expressed in Sf9 cells assessed as amount of glucose produced using maltose as a substrate after 45 mins by glucose oxidase assay
[20] = Activity of mouse his-tagged ctMGAM-N20 expressed in Sf9 cells assessed as amount of glucose produced using maltose as a substrate after 45 mins by glucose oxidase assay
[21] = Selectivity ratio of Ki for human ntSI to Ki for mouse ctMGAM-N20
[22] = species: Mus musculus; test: Selectivity ratio of Ki for mouse ctSI to Ki for mouse ctMGAM-N20
[23] = Selectivity ratio of Ki for human ntSI to Ki for mouse ctSI
[24] = species: Mus musculus; test: Selectivity ratio of Ki for mouse ctMGAM-N2 to Ki for mouse ctMGAM-N20
[25] = species: Mus musculus; test: Selectivity ratio of Ki for mouse ctMGAM-N2 to Ki for mouse ctSI

Row | Compound | Ki [1] [nM] | Ki [2] [nM] | Ki [3] [nM] | Ki [4] [nM] | Ki [5] [nM] | Ratio Ki [6] | Ratio Ki [10] | Ratio Ki [11] | also measured
1 | O=S(=O)([O-])O[C@@H]([C@H](O)[C@H](O)[C@@H](O)CO)[C@H](O)C[S+]1C[C@@H](O)[C@H](O)[C@H]1CO (stereo not given in full) [KOTALANOL] | 64 | 92 | 190 | 42 | 600 |  |  |  | 
2 | OC[C@@H]1[C@@H](O)[C@H](O)C[S+]1C[C@@H](O)[C@@H](O)[C@H](O)[C@H](O)[C@@H](O)CO (stereo not given in full) [DE-O-SULFONATED KOTALANOL] | 26 | 78 | 30 | 26 | 12 |  |  |  | 
3 | O=S(=O)([O-])O[C@@H](CO)[C@H](O)C[Se+]1C[C@@H](O)[C@H](O)[C@H]1CO (stereo not given in full) [BLINTOL] | 18 | 13 | 490 | 29 | 160 | 10 |  |  | Ratio Ki [7]: 10; Ratio Ki [8]: 10; Ratio Ki [9]: 10
4 | OCCN1C[C@H](O)[C@@H](O)[C@H](O)[C@H]1CO [MIGLITOL] | 211 | 230 | 1000 | 130 | 148 | 4 | 4 | 4 | Ratio Ki [12]: 4
5 | OC[C@H]1O[C@H](O[C@H]2[C@H](O)[C@@H](O)[C@H](O)O[C@@H]2CO)[C@H](O)[C@@H](O)[C@@H]1O [MALTOSE] |  |  |  |  |  |  |  |  | Km [13]: 1590 µM; Km [14]: 1910 µM; Km [15]: 2500 µM; Km [16]: 7100 µM; Km [17]: 4300 µM; Ratio [18]: 4; Km [4]: 2500 µM; Km [19]: 1590 µM; Km [20]: 1910 µM
6 | C[C@H]1O[C@H](O[C@H]2[C@H](O)[C@@H](O)[C@@H](O[C@H]3[C@H](O)[C@@H](O)C(O)O[C@@H]3CO)O[C@@H]2CO)[C@H](O)[C@@H](O)[C@@H]1N[C@H]1C=C(CO)[C@@H](O)[C@H](O)[C@H]1O (stereo not given in full) [ACARBOSE] | 9 | 28 | 62000 | 246 | 14000 | 1000 | 1000 | 100 | Ratio Ki [7]: 1000; Ratio Ki [8]: 1000; Ratio Ki [21]: 1000; Ratio Ki [22]: 1000; Ratio Ki [23]: 100
7 | O=S(=O)([O-])O[C@@H](CO)[C@H](O)C[S@+]1C[C@@H](O)[C@H](O)[C@H]1CO [SALACINOL] | 213 | 58 |  | 47 | 277 |  | 5 | 5 | Ratio Ki [21]: 5; Ratio Ki [23]: 5; Ratio Ki [24]: 4; Ratio Ki [25]: 5
